Data as given in ChEMBL document CHEMBL4431353, “Optimization of a Series of Bivalent Triazolopyridazine Based Bromodomain and Extraterminal Inhibitors: The Discovery of (3R)-4-[2-[4-[1-(3-Methoxy-[1,2,4]triazolo[4,3-b]pyridazin-6-yl)-4-piperidyl]phenoxy]ethyl]-1,3-dimethyl-piperazin-2-one (AZD5153)” (J Med Chem, 2016).
≈ marks a conversion by molar mass, not a printed value.

What was measured:
[1] = molecular target: T1, Bromodomain-containing protein 4 (Homo sapiens, UniProt O60885); assay: Displacement of Alexa647-labeled JQ1 derivative from wild type BRD4 tandem domain (44 to 460 residues) (unknown origin) incubated for 1 hr by fluorescence polarization assay
[2] = molecular target: T1, Bromodomain-containing protein 4; assay: Inhibition of BRD4 in human MCF7 cells assessed as down regulation of ERalpha after 18 to 24 hrs by Hoechst staining based cellomics arrayscan analysis; type: cell-based
[3] = molecular target: T1, Bromodomain-containing protein 4; assay: Inhibition of BRD4 in human MM1S cells assessed as down regulation of c-Myc incubated for 16 hrs by flow cytometry; type: cell-based
MM1.S = assay: Growth inhibition of human MM1S cells after 72 hrs by alamar blue assay; type: functional
[4] = Lipophilicity, log D of compound at pH 7.4; type: physicochemical; settings: buffer
[5] = Thermodynamic solubility of compound in pH 7.4 solution; type: physicochemical; settings: buffer, read-out: Therm_solubility
[6] = Intrinsic clearance in human hepatocytes assessed per million cells; type: ADME, cell-based, Hepatocyte; settings: read-out: CLH
[7] = molecular target: Bromodomain-containing protein 4 (Homo sapiens, UniProt O60885, N140A)
[8] = molecular target: Bromodomain-containing protein 4 (Homo sapiens, UniProt O60885, N433A)
[9] = molecular target: T1, Bromodomain-containing protein 4; assay: Inhibition of BRD4 in human LNCAP cells assessed as down regulation of nuclear AR level by immunofluorescence assay; type: cell-based

| Structure (SMILES) | Ki [1] | IC50 [2] | IC50 [3] | GI50 (MM1.S) | logD [4] | solubility thermodynamic [5] | hepatocyte CLint [6] | Ki [7] | Ki [8] | IC50 [9] |
| --- | --- | --- | --- | --- | --- | --- | --- | --- | --- | --- |
| Cc1nnc2ccc(N3CCC(c4ccc(OCCN5CCN(C)C(=O)[C@H]5C)cc4)CC3)nn12 | 15.8 nM | 39.8 nM | 25.1 nM | 5.01 nM | 2.4 | 670 µM (≈ 311 µg/mL) | 7.2 µL/min/1e6 cells | 200 nM | 251 nM | – |
| COc1nnc2ccc(N3CCC(c4ccc(N5CCC(N6CCN(C)C(=O)[C@H]6C)CC5)cc4)CC3)nn12 | 50.1 nM | 158 nM | – | – | 2 | 760 µM (≈ 394 µg/mL) | 2.7 µL/min/1e6 cells | 316 nM | 158 nM | – |
| COc1nnc2ccc(N3CCC(c4ccc(OCCN5CCN(C)C(=O)[C@@H]5C)cc4)CC3)nn12 | 126 nM | 316 nM | 79.4 nM | – | 2.2 | 900 µM (≈ 432 µg/mL) | < 1.4 µL/min/1e6 cells | 1000 nM | 251 nM | – |
| COc1nnc2ccc(N3CCC(c4ccc(OCCCN5CCN(C)C(=O)[C@H]5C)cc4)CC3)nn12 | 3.98 nM | 20 nM | 3.16 nM | < 1.58 nM | 2.4 | > 1000 µM | 5.1 µL/min/1e6 cells | 63.1 nM | 79.4 nM | – |
| C[C@@H]1C(=O)N(C)CCN1CCOc1ccc(C2CCN(c3ccc4nncn4n3)CC2)cc1 | > 1000 nM | > 3160 nM | 1260 nM | – | 1.9 | 1000 µM (≈ 450 µg/mL) | 180 µL/min/1e6 cells | 2510 nM | 6310 nM | 1580 nM |
| COc1nnc2ccc(N3CCC(c4ccc(OCCCCN5CCN(C)C(=O)[C@H]5C)cc4)CC3)nn12 | 6.31 nM | 20 nM | – | – | 2.8 | 470 µM (≈ 239 µg/mL) | 12 µL/min/1e6 cells | 100 nM | 63.1 nM | – |

Continued by falling Ki [1], values first:

| Ki [1] | IC50 [2] | IC50 [3] | GI50 (MM1.S) | logD [4] | solubility thermodynamic [5] | hepatocyte CLint [6] | Ki [7] | Ki [8] | IC50 [9] | Structure (SMILES) |
| --- | --- | --- | --- | --- | --- | --- | --- | --- | --- | --- |
| 2510 nM | 1000 nM | – | – | 3.1 | 52 µM (≈ 26.2 µg/mL) | 26 µL/min/1e6 cells | 7940 nM | 398 nM | – | CN1CCN(CCOc2ccc(C3CCN(c4ccc5nnc(C(F)(F)F)n5n4)CC3)cc2)C(=O)C1 |
| 200 nM | 501 nM | – | – | 3 | 65 µM (≈ 32.7 µg/mL) | 18 µL/min/1e6 cells | 1000 nM | 316 nM | 316 nM | CN1CCN(CCOc2ccc(C3CCN(c4ccc5nnc(C(F)(F)F)n5n4)CC3)cc2)CC1=O |
| 63.1 nM | 794 nM | – | – | 1.7 | 870 µM (≈ 427 µg/mL) | < 1.2 µL/min/1e6 cells | 398 nM | 200 nM | – | COc1nnc2ccc(N3CCC(c4ccc(N5CC(N6CCN(C)C(=O)[C@H]6C)C5)cc4)CC3)nn12 |
| 12.6 nM | 31.6 nM | 20 nM | – | 2.9 | 660 µM (≈ 327 µg/mL) | 21 µL/min/1e6 cells | 126 nM | 158 nM | 25.1 nM | CSc1nnc2ccc(N3CCC(c4ccc(OCCN5CCN(C)C(=O)[C@H]5C)cc4)CC3)nn12 |
| 7.94 nM | 25.1 nM | 10 nM | 5.01 nM | 3.3 to 4.2 | 63 µM (≈ 32.6 µg/mL) | 70 µL/min/1e6 cells | 63.1 nM | 398 nM | 39.8 nM | C[C@@H]1C(=O)N(C)CCN1CCOc1ccc(C2CCN(c3ccc4nnc(C(F)(F)F)n4n3)CC2)cc1 |
| 7.94 nM | 20 nM | 12.6 nM | 6.31 nM | 2.3 | 750 µM (≈ 370 µg/mL) | 80 µL/min/1e6 cells | 251 nM | 126 nM | – | COc1nnc2ccc(N3CCC(c4ccc(OCCN5[C@H](C)CN(C)C(=O)[C@H]5C)cc4)CC3)nn12 |
| 5.01 nM | 39.8 nM | – | – | 3.4 | 280 µM (≈ 142 µg/mL) | 48 µL/min/1e6 cells | 158 nM | 50.1 nM | – | COc1nnc2ccc(N3CCC(c4ccc(OCCN5C[C@@H](C)N(C(C)=O)[C@@H](C)C5)cc4)CC3)nn12 |
